Assay results from EP3666770A1, “NOVEL HETEROCYCLIC COMPOUNDS AS CDK8/19 INHIBITORS” (Joint Stock Company "Biocad", priority 2017, dated 2019).
Where two headings read alike, the source gives them in different places.

Legend:
[1] = Permeability through Caco-2 cell monolayer; type: in vitro ADME; conditions: human, Caco-2; for Papp A→B at 2 h, 10 µM: A->B transfer, pH 6.5 -> pH 7.4, 2 hours at 37 °C; for efflux ratio at 2 h, 10 µM: efflux = Papp B-A / Papp A-B
Summary of the method: (§1)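 Caco-2 monolayers grown for 21 days (Lucifer Yellow integrity check) received 10 µM compound apically at pH 6.5 (A→B) or basolaterally at pH 7.4 with 1% BSA on the basolateral side (B→A). After 2 h at 37 °C, both chambers were quantified by HPLC. Efflux ratio = Papp B→A / Papp A→B.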

[2] = Chemical stability in human blood plasma; type: in vitro ADME; conditions: pooled human blood plasma; 10 µM; 4 hours at 37°C; substance amount in % after thermostatting
Summary of the method: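 Pooled plasma from ten healthy human donors; compound diluted from 10 mM DMSO stock to 10 µm final and incubated 4 h at 37°C. After acetonitrile protein precipitation, HPLC peak areas before and after incubation were compared; value is % compound remaining.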

MV4-11 = assay: Cell-based antiproliferative test (AlamarBlue), MV4-11; conditions: 120 h incubation, average values of several tests, read-out: MV-4-11 IC50, mkM
[3] = Enzyme stability in human liver S9 fractions; type: in vitro ADME; conditions: 0,5 mg/mL pooled human liver S9 fractions, 10 µM compound, 37°C, pH=7,4; for microsomal CLint at 10 µM: pH 7.4
Protocol: Measuring of candidates' enzyme stability enabled estimation of the stability of the present compounds towards the action of enzymes in human liver S9 fractions.
Enzyme degradation rate was measured by incubating the reaction mixture in a dry block thermostat at 37°C, said reaction mixture comprising 0,5 mg/mL of pooled human liver S9 fractions (XenoTech, USA, cat#H0610), 10 µM compound, 2 mM β-nicotinamide adenine dinucleotide (Carbosynth, UK, cat#NN10871) and 4 mM magnesium chloride in 0,1 M sodium-phosphate buffer, pH=7,4. The reaction was quenched with acetonitrile (100 µL of acetonitrile / 100 µL of the reaction mixture). After quenching, the samples were centrifuged at 10000 rpm for 10 minutes. Supernatant fluid was tested by chromatographic technique using Agilent1200 (Agilent, USA). Chromatographic analysis was performed in a gradient elution regime with a flow rate of 1 mL/min. A graph of the logarithm of substance's peak area as a function of time was made.

[4] = General cytotoxicity test on HepG2 cells; type: cell-based; conditions: human, HepG2 cells; 72 h incubation; 200 to 0.78 µM; average values of several tests; read-out: Hep-G2 CC50, mkM
Protocol: Cell viability was assessed using the above method. Table 6. […] The results are presented as average values of activity obtained in several tests.

KG-1 = assay: Cell-based antiproliferative test (AlamarBlue), KG-1; conditions: 120 h incubation, average values of several tests, read-out: KG-1 IC50, mkM
Caco-2 cell monolayer = assay: Permeability through Caco-2 cell monolayer; type: in vitro ADME; conditions: efflux = Papp B-A / Papp A-B
Summary of the method: as §1

[5] = Chemical stability in simulated gastric fluid (SGF); type: physicochemical; conditions: SGF without enzymes, pH=1,4; 10 µm; 2 hours at 37°C; substance amount in % after thermostatting
Summary of the method: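 Compounds at […] (diluted from DMSO stock) were incubated for 2 h at 37 °C in enzyme-free simulated gastric fluid, pH=1,4. HPLC peak areas before and after incubation gave the % of compound remaining.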

[6] = Enzyme stability in human liver microsomes; type: in vitro ADME; conditions: pH 7.4; 0,5 mg/mL pooled human liver microsomes; 10 µM compound; 37°C; pH=7,4
Summary of the method: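 Pooled human liver microsomes (0,5 mg/mL) incubated at 37 °C with 10 µM compound, 2 mM β-NAD and 4 mM MgCl2 in 0,1 M sodium phosphate, pH 7,4. Samples quenched with acetonitrile and analysed by HPLC. Elimination rate constant taken from the slope of log peak area versus time, giving t1/2 and CLint.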

Structure (SMILES) | Papp A→B at 2 h, 10 µM [1] | efflux ratio at 2 h, 10 µM [1] | Stability in blood plasma, % [2] | IC50 (MV4-11; Homo sapiens, MV4-11, 120 h) | microsomal CLint at 10 µM [3] | CC50 at 72 h [4] | IC50 (KG-1; Homo sapiens, KG-1) | efflux (Caco-2 cell monolayer) | Stability in SGF, % [5] | IC50 (KG-1) | IC50 (MV4-11) | Stability in S9, Clint [3] | microsomal CLint at 10 µM [6]
Cn1cc(-c2ccc(-c3cnc(N)c4ncc(C(=O)N5CCOCC5)cc34)cc2)cn1 [CDK8-3-27, (8-Amino-5-(4-(1-methyl-1H-pyrazol-4-yl)phenyl)-1,7-naphthyridin-3-yl) (morpholino)methanone] | 22.6 ×10⁻⁶ cm/s | 0.9 | 94.2% | 66 nM | 1.55 µL/min/mg | 19400 nM | – | – | – | – | – | – | –
Cn1cc(-c2ccc(-c3cnc(N)c4ncc(C(=O)N5CCC5)cc34)cc2)cn1 [CDK8-3-26, (8-Amino-5-(4-(1-methyl-1H-pyrazol-4-yl)phenyl)-1,7-naphthyridin-3-yl) (azetidin-1-yl)methanone] | 53.7 ×10⁻⁶ cm/s | 0.3 | 95.8% | 11 nM | 3.25 µL/min/mg | 4900 nM | 3 nM | – | – | – | – | – | –
COCCNC(=O)c1cnc2c(N)ncc(-c3ccc(-c4cnn(C)c4)cc3)c2c1 [CDK8-3-24, 8-Amino-N-(2-methoxyethyl)-5-(4-(1-methyl-1H-pyrazol-4-yl)phenyl)-1,7-naphthyridine-3-carboxamide] | 17 ×10⁻⁶ cm/s | 1.1 | 89.7% | 99 nM | 4.6 µL/min/mg | > 200000 nM | – | – | – | – | – | – | –
CN(C)C(=O)c1cnc2cncc(-c3ccc(-c4cnn(C)c4)cc3)c2c1 [CDK8-3-22, N,N-Methyl-5-(4-(1-methyl-1H-pyrazol-4-yl)phenyl)-1,7-naphthyridine-3-carboxamide] | – | – | – | 432 nM | 3 µL/min/mg | > 100000 nM | – | – | – | – | – | – | –
COCCN(C)C(=O)c1cnc2c(N)ncc(-c3ccc(-c4cnn(C)c4)cc3)c2c1 [CDK8-3-32] | 24.9 ×10⁻⁶ cm/s | 0.7 | 100% | 10 nM | 3.8 µL/min/mg | 20700 nM | < 10 nM | – | – | – | – | – | –
CO[C@@H]1CCN(C(=O)c2cnc3cncc(-c4ccc(-c5cnn(C)c5)cc4)c3c2)C1 [CDK8-3-19, (R)-(3-Methoxypyrrolidin-1-yl)(5-(4-(1-methyl-1H-pyrazol-4-yl)phenyl)-1,7-naphthyridin-3-yl)methanone] | – | – | – | 912 nM | 2.9 µL/min/mg | > 100000 nM | – | – | – | – | – | – | –
COCCN(C)C(=O)c1cnc2cncc(-c3ccc(-c4cnn(C)c4)cc3)c2c1 [CDK8-3-25, N-(2-Methoxyethyl)-N-methyl-5-(4-(1-methyl-1H-pyrazol-4-yl)phenyl)-1,7-naphthyridine-3-carboxamide] | 29.3 ×10⁻⁶ cm/s | 0.6 | – | 134 nM | 3.3 µL/min/mg | > 100000 nM | – | – | – | – | – | – | –
COc1cc(-c2cnc3[nH]cc(C(=O)c4ccccn4)c3c2)ccc1N(C)C [CDK8-4-21, (5-(4-(Dimethylamino)-3-methoxyphenyl)-1H-pyrrolo[2,3-b]pyridin-3-yl)(pyridin-2-yl)methanone] | 106 ×10⁻⁶ cm/s | – | 100% | 740 nM | – | 4700 nM | – | 0.09 | 100% | – | – | – | –
Cn1cc(-c2ccc(-c3cnc(N)c4ncc(C(=O)NCCO)cc34)cc2)cn1 [CDK8-3-42, 8-Amino-N-(2-hydroxyethyl)-5-(4-(1-methyl-1H-pyrazol-4-yl)phenyl)-1,7-naphthyridine-3-carboxamide] | 11.8 ×10⁻⁶ cm/s | 1.6 | 100% | 28 nM | 0.5 µL/min/mg | 15900 nM | 9 nM | – | – | – | – | – | –
Cn1cc(-c2ccc(-c3cncc4ncc(C(=O)NCC5CC5)cc34)cc2)cn1 [CDK8-3-39] | – | – | – | – | – | – | – | – | – | 5 nM | 55 nM | 10.3 µL/min/mg | –
COc1ccc(-c2cnc3[nH]cc(C(=O)c4cccnc4)c3c2)c(C#N)c1 [CDK8-4-28, 5-Methoxy-2-(3-nicotinoyl-1H-pyrrolo[2,3-b]pyridin-5-yl) benzonitrile] | 68.9 ×10⁻⁶ cm/s | – | 100% | > 1000 nM | – | > 200000 nM | – | 0.03 | 100% | – | – | – | 6.8 µL/min/mg
